# Measurements as given in patent US20230091225A1, “Bifunctional chimeric heterocyclic compounds for targeted degradation of androgen receptors and use thereof” (HINOVA PHARMACEUTICALS INC., priority 2019, published 2023).
# Target: T1, androgen receptor (AR) (Homo sapiens, UniProt P10275)
# T1 sequence (P10275 1-920): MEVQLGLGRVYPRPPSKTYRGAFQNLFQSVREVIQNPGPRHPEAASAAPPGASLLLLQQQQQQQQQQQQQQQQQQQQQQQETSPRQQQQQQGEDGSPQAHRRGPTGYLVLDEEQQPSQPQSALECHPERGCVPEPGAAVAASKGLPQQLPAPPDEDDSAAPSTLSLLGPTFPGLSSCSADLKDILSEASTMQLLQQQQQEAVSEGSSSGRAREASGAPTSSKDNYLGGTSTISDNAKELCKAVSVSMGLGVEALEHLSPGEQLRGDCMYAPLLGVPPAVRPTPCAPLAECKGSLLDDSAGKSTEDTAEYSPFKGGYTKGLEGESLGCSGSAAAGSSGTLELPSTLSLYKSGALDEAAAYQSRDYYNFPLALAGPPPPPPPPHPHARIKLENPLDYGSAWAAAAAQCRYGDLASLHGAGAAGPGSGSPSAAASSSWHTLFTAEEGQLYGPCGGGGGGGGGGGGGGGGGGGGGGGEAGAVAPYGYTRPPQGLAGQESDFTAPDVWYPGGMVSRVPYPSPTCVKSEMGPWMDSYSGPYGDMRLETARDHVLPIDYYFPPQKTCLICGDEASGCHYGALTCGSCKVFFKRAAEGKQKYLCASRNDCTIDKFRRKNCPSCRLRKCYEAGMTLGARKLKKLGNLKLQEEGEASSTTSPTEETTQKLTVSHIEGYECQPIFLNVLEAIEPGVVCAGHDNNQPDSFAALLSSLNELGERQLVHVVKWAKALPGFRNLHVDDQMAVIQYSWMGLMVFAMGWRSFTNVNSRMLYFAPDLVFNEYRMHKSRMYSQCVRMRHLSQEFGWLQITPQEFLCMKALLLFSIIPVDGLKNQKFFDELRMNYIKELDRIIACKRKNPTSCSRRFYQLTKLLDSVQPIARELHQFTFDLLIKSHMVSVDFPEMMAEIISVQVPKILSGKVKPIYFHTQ
# Assay: Degradation of androgen receptor (AR) protein in VCaP cells by Western blot
# Assay type: cell-based
# Details: FIG. 1
# Description: Determination of the Degradation Activity of the Compound on Androgen Receptor (AR) Protein by Western Blot
# 1) VCaP cells were subcultured in cell culture media, and then the cells in good growth condition were seeded in a 12-well plate at 1 ml/well (5×10^5 cells/well), and cultured overnight in a 37° C., 5% CO2 cell incubator. 2) The test compound was prepared into a 10 mM stock solution with dimethyl sulfoxide (DMSO). Prior to use, the solution was diluted 3 times with DMSO. […] of the diluted compound solution was added to the cell culture well (ensuring that the DMSO concentration in the culture system was 0.1%), and two wells were set for each concentration. The plate was gently shaken to mix. In addition, the experiment included negative control wells (containing equal amount of DMSO) and positive control wells. 3) After culturing 16 h. the cells were lysed with RIPA cell lysate, and the protein was extracted. The protein concentration was measured with BCA kit. 5-fold concentrated protein loading buffer was added, and after heated at 100° C. for 5 min. the sample was stored at −20° C. 4) for each well, 30 μg of protein was loaded on polyacrylamide gel for electrophoresis. 5) The protein was transferred from polyacrylamide gel to PVDF membrane, and then 5% skim milk was added to close for 1 h at room temperature. The first antibody (Androgen Receptor (D6F11) XP Rabbit mAb and Anti-β-Actin Rabbit mAb) was added and incubated overnight at 4° C. The membrane was washed with TBST solution three times. 10 min for each time. The secondary antibody (horseradish peroxidase labeled goat […]) was added and incubated at room temperature for 2 h, and then the membrane was washed with TBST solution three times. 10 min for each time.
# Finally, ECL chemiluminescence solution was added, and then photos were taken with automatic chemiluminescence instrument to collect pictures for analysis.
row,degradation activity on AR at different concentrations,Structure (SMILES)
1,concentration-dependent manner,N#Cc1ccc(O[C@H]2CC[C@H](NC(=O)c3cnc(N4CCN(C[C@@H]5[C@H]6CN(c7cc8c(cc7F)C(=O)N(C7CCC(=O)NC7=O)C8=O)C[C@@H]56)CC4)cn3)CC2)cc1Cl (stereo partly shown) [Compound 99]

# Same assay, conditions: percentage of degraded AR at 100 nM, VCaP cells, 16 h
inhibition at 0.1 µM,Structure (SMILES),% degradation
–,"N#Cc1ccc(OC2CCC(NC(=O)c3cnc(N4CCC(NC5CCN(c6cc7c(cc6F)C(=O)N(C6CCC(=O)NC6=O)C7=O)CC5)CC4)cn3)CC2)cc1Cl (stereo not shown) [Compound 73, N-((1r,4r)-4-(3-chloro-4-cyanophenoxy)cyclohexyl)-5-(4-((1-(2,6-dioxopiperidin-3-yl-6-fluoro-1,3-dioxoisoindolin-5-yl)piperidine-4-yl)amino)piperidin-1-yl)pyrazine-2-carboxamide]",A (>80%)
50 to 79%,N#Cc1ccc(O[C@H]2CC[C@H](NC(=O)c3ccc(N4CC5CN(C[C@@H]6[C@H]7CN(c8ccc9c(c8)C(=O)N(C8CCC(=O)NC8=O)C9=O)C[C@@H]67)CC5C4)nn3)CC2)cc1Cl (stereo partly shown) [Compound 100],–
25 to 49%,CC1(C)[C@H](NC(=O)c2ccc(N3CCN(C[C@@H]4[C@H]5CN(c6cc7c(cc6F)C(=O)N(C6CCC(=O)NC6=O)C7=O)C[C@@H]45)CC3)nn2)C(C)(C)[C@H]1Oc1ccc(C#N)c(Cl)c1 (stereo partly shown) [Compound 101],–
50 to 79%,N#Cc1ccc(O[C@H]2CC[C@H](NC(=O)c3ccc(N4CCN(C[C@@H]5[C@H]6CN(c7ccc8c(c7)C(=O)N(C7CCC(=O)NC7=O)C8=O)C[C@@H]56)CC4)nn3)CC2)cc1Cl (stereo partly shown) [Compound 102],–
> 80%,"N#Cc1ccc(O[C@H]2CC[C@H](NC(=O)c3ccc(N4CCC(N5CC6(CCN(c7cc8c(cc7F)C(=O)N(C7CCC(=O)NC7=O)C8=O)C6)C5)CC4)nn3)CC2)cc1Cl (stereo partly shown) [Compound 103, N-((1r,4r)-4-(3-chloro-4-cyanophenoxy)cyclohexyl)-6-(4-(6-(2-(2,6-dioxopiperidin-3-yl)-6-fluoro-1,3-dioxoisoindolin-5-yl)-2,6-diazaspiro[3.4]octane-2-yl)piperidin-1-yl)pyridazine-3-formamide]",–
< 25%,N#Cc1ccc(OC2CC3(CC(NC(=O)c4ccc(N5CCC(CN6CCN(c7ccc8c(c7)C(=O)N(C7CCC(=O)NC7=O)C8=O)CC6)CC5)nn4)C3)C2)cc1Cl (stereo not shown) [Compound 109],–
< 25%,N#Cc1ccc(O[C@H]2CC[C@H](NC(=O)c3ccc(N4CCC(O[C@@H]5CCN(c6ccc7c(c6)C(=O)N(C6CCC(=O)NC6=O)C7=O)C5)CC4)cc3)CC2)cc1Cl (stereo partly shown) [Compound 111],–
< 25%,"N#Cc1ccc(OC2CC3(C2)CN(C(=O)c2ccc(N4CCC(CN5CCN(c6ccc7c(c6)C(=O)N(C6CCC(=O)NC6=O)C7=O)CC5)CC4)nn2)C3)cc1Cl (stereo not shown) [Compound 120, 2-chloro-4-((2-(6-(4-((4-(2-(2,6-dioxopiperidin-3-yl)-1,3-dioxoisoindolin-5-yl)piperazin-1-yl)methyl)piperidin-1-yl)pyridazine-3-carbonyl)-2-azaspiro[3.3]heptan-6-yl)oxy)benzonitrile]",–
50 to 79%,N#Cc1ccc(O[C@H]2CC[C@H](NC(=O)c3ccc(N4CC(CN5CC6CN(c7cc8c(cc7F)C(=O)N(C7CCC(=O)NC7=O)C8=O)CC6C5)C4)nn3)CC2)cc1Cl (stereo partly shown) [Compound 137],–
25 to 49%,N#Cc1ccc(O[C@H]2CC[C@H](NC(=O)c3cnc(N4CC(CN5CC6CN(c7cc8c(cc7F)C(=O)N(C7CCC(=O)NC7=O)C8=O)CC6C5)C4)cn3)CC2)cc1Cl (stereo partly shown) [Compound 138],–
25 to 49%,N#Cc1ccc(O[C@H]2CC[C@H](NC(=O)c3cnc(N4CC(CN5CC6CN(c7cc8c(cc7F)C(=O)N(C7CCC(=O)NC7=O)C8=O)CC6C5)C4)nc3)CC2)cc1Cl (stereo partly shown) [Compound 140],–
> 80%,N#Cc1ccc(O[C@H]2CC[C@H](NC(=O)c3cnc(N4CC5CN(CC6CCN(c7cc8c(cc7F)C(=O)N(C7CCC(=O)NC7=O)C8=O)CC6)CC5C4)cn3)CC2)cc1Cl (stereo partly shown) [Compound 157],–
50 to 79%,N#Cc1ccc(O[C@H]2CC[C@H](NC(=O)c3cnc(N4CC5CN(CC6CN(c7cc8c(cc7F)C(=O)N(C7CCC(=O)NC7=O)C8=O)C6)CC5C4)cn3)CC2)cc1Cl (stereo partly shown) [Compound 159],–

Structure (SMILES),inhibition at 0.1 µM,% degradation
N#Cc1ccc(O[C@H]2CC[C@H](NC(=O)c3ccc(N4CCC5(CC4)CN(C4CCN(c6cc7c(cc6F)C(=O)N(C6CCC(=O)NC6=O)C7=O)CC4)C5)nn3)CC2)cc1Cl (stereo partly shown) [Compound 71],> 80%,–
"CC1(C)[C@H](NC(=O)c2ccc(N3CC4CN(C5CCN(c6cc7c(cc6F)C(=O)N(C6CCC(=O)NC6=O)C7=O)CC5)CC4C3)nn2)C(C)(C)[C@H]1Oc1ccc(C#N)c(Cl)c1 (stereo partly shown) [Compound 72, N-((1r,3r)-3-(3-chloro-4-cyanophenoxy)-2,2,4,4-tetramethylcyclobutyl)-6-(5-(1-(2-(2,6-dioxopiperidin-3-yl)-6-fluoro-1,3-dioxoisoindolin-5-yl)piperidine-4-yl)hexahydropyrrolo[3,4-c]pyrrol-2(1H)-yl)pyridazine-3-formamide]",25 to 49%,–
N#Cc1ccc(O[C@H]2CC[C@H](NC(=O)c3ccc(N4CCC5(CC4)CN(C4CCN(c6ccc7c(c6)C(=O)N(C6CCC(=O)NC6=O)C7=O)CC4)C5)nn3)CC2)cc1Cl (stereo partly shown) [Compound 74],> 80%,–
"N#Cc1ccc(O[C@H]2CC[C@H](NC(=O)c3nnc(N4CC5(CCN(CC6CCN(c7ccc8c(c7)C(=O)N(C7CCC(=O)NC7=O)C8=O)CC6)CC5)C4)s3)CC2)cc1Cl (stereo partly shown) [Compound 105, N-((1r,4r)-4-(3-chloro-4-cyanophenoxy)cyclohexyl)-5-(7-((1-(2-(2,6-dioxopiperidin-3-yl)-1,3-dioxoisoindolin-5-yl)piperidine-4-yl)methyl)-2,7-diazaspiro[3.5]nonan-2-yl)-1,3,4-thiadiazole-2-carboxamide]",50 to 79%,–
"N#Cc1ccc(O[C@H]2CC[C@H](NC(=O)c3ccc(N4CCC(NC5CCN(c6ccc7c(c6)C(=O)N(C6CCC(=O)NC6=O)C7=O)CC5)CC4)nn3)CC2)cc1Cl (stereo partly shown) [Compound 118, N-((1r,4r)-4-(3-chloro-4-cyanophenoxy)cyclohexyl)-6-(4-((1-(2-(2,6-dioxopiperidin-3-yl)-1,3-dioxoisoindolin-5-yl)piperidine-4-yl)amino)piperidin-1-yl)pyridazine-3-amide]",25 to 49%,–
N#Cc1ccc(O[C@H]2CC[C@H](NC(=O)c3ccc(N4CCC(CN5CCC(Nc6cc7c(cc6F)C(=O)N(C6CCC(=O)NC6=O)C7=O)CC5)CC4)nn3)CC2)cc1Cl (stereo partly shown) [Compound 139],> 80%,–
N#Cc1ccc(O[C@H]2CC[C@H](NC(=O)c3cnc(N4CCC(CN5CCC6(CCN(c7cc8c(cc7F)C(=O)N(C7CCC(=O)NC7=O)C8=O)C6)C5)CC4)cn3)CC2)cc1Cl (stereo partly shown) [Compound 141],> 80%,–
"N#Cc1ccc(O[C@H]2CC[C@H](NC(=O)c3ccc(N4CCC(CN5CCC6(CCN(c7cc8c(cc7F)C(=O)N(C7CCC(=O)NC7=O)C8=O)C6)C5)CC4)nn3)CC2)cc1Cl (stereo partly shown) [Compound 142, N-((1r,4r)-4-(3-chloro-4-cyanophenoxy)cyclohexyl)-6-(4-((7-(2-(2,6-dioxopiperidin-3-yl)-6-fluoro-1,3-dioxoisoindol-5-yl)-2,7-diazaspiro[4.4]nonan-2-yl)methyl)piperidin-1-yl)pyridazine-3-formamide]",> 80%,–
N#Cc1ccc(O[C@H]2CC[C@H](NC(=O)c3ccc(N4CCC(CN5CCC(Nc6ccc7c(c6)C(=O)N(C6CCC(=O)NC6=O)C7=O)CC5)CC4)nn3)CC2)cc1Cl (stereo partly shown) [Compound 143],> 80%,–
N#Cc1ccc(O[C@H]2CC[C@H](NC(=O)c3cnc(N4CCC(CN5CCC(Nc6cc7c(cc6F)C(=O)N(C6CCC(=O)NC6=O)C7=O)CC5)CC4)cn3)CC2)cc1Cl (stereo partly shown) [Compound 145],> 80%,–
N#Cc1ccc(O[C@H]2CC[C@H](NC(=O)c3cnc(N4CCC(CN5CCC(Nc6ccc7c(c6)C(=O)N(C6CCC(=O)NC6=O)C7=O)CC5)CC4)cn3)CC2)cc1Cl (stereo partly shown) [Compound 146],> 80%,–
